Measured values as given in PMC7987348, “Structural basis for human TRPC5 channel inhibition by two distinct inhibitors” (eLife, 2021).

How the values were obtained:
TRPC5 [1] = system: TRPC5; set-up: method as in Richter et al., 2014; Zhou et al., 2017; Zhu et al., 2015; settings: ref Richter et al., 2014; Zhou et al., 2017; Zhu et al., 2015; read-out: IC50 for inhibition of TRPC5; cited from earlier work
TRPC5 [2] = system: TRPC5; set-up: method as in Minard et al., 2019; settings: ref Minard et al., 2019; read-out: EC50 as TRPC5 activator; cited from earlier work
[3] = molecular target: the molecule itself; test: cryo-EM structure; purified hTRPC5(1-764) in GDN micelles with 100 uM Ca2+ plus 500 uM CMZ, 50 uM HC-070 or EA (EA not seen, 'apo'); graphene oxide grids; C4 symmetry imposed in refinement
[4] = molecular target: the molecule itself; test: SEC; fluorescence-detection SEC (FSEC) of transfected HEK293F cells solubilised in 1% LMNG, 0.1% CHS in TBS (20 mM Tris-HCl pH 8.0, 150 mM NaCl), 4°C; Superose-6 Increase

In the case of `c1ccc(Cn2c(NCc3ccco3)nc3ccccc32)cc1` [AC1903], the IC50 (TRPC5 [1]) is listed as 14.7 µM.

For `Cn1c(=O)n(CCCO)c(=O)c2c1nc(Oc1ccc(Cl)c(OC(F)(F)F)c1)n2Cc1ccc(Cl)cc1` [AM237], the EC50 (TRPC5 [2]) is listed as 15 to 20 nM.

B1: human TRPC5 residues 1-764 (hTRPC5_(1-764)), purified tetrameric channel (domain or fragment, UniProt Q9UL62 1-764, looked up)
chain: MAQLYYKKVNYSPYRDRIPLQIVRAETELSAEEKAFLNAVEKGDYATVKQALQEAEIYYNVNINCMDPLGRSALLIAIENENLEIMELLLNHSVYVGDALLYAIRKEVVGAVELLLSYRRPSGEKQVPTLMMDTQFSEFTPDITPIMLAAHTNNYEIIKLLVQKRVTIPRPHQIRCNCVECVSSSEVDSLRHSRSRLNIYKALASPSLIALSSEDPILTAFRLGWELKELSKVENEFKAEYEELSQQCKLFAKDLLDQARSSRELEIILNHRDDHSEELDPQKYHDLAKLKVAIKYHQKEFVAQPNCQQLLATLWYDGFPGWRRKHWVVKLLTCMTIGFLFPMLSIAYLISPRSNLGLFIKKPFIKFICHTASYLTFLFMLLLASQHIVRTDLHVQGPPPTVVEWMILPWVLGFIWGEIKEMWDGGFTEYIHDWWNLMDFAMNSLYLATISLKIVAYVKYNGSRPREEWEMWHPTLIAEALFAISNILSSLRLISLFTANSHLGPLQISLGRMLLDILKFLFIYCLVLLAFANGLNQLYFYYETRAIDEPNNCKGIRCEKQNNAFSTLFETLQSLFWSVFGLLNLYVTNVKARHEFTEFVGATMFGTYNVISLVVLLNMLIAMMNNSYQLIADHADIEWKFARTKLWMSYFDEGGTLPPPFNIIPSPKSFLYLGNWFNNTFCPKRDPDGRRRRRNLRSFTERNADSLIQNQHYQEVIRNLVKRYVAAMIRNSKTHEGLTEENFKELKQDISSFRYEVLDLLGNR
notes: human TRPC5 (transient receptor potential canonical 5), C-terminally truncated construct, residues 1-764; That this removes the GFP-MBP tag is surmised; also called apo hTRPC5; source: HEK293F, BacMam baculovirus infection, purified (MBP resin, H3C protease digestion, Superose-6 Increase SEC in GDN); not shown: GFP, N-terminal, cleaved; MBP, N-terminal, cleaved
With B1 the “stoichiometry N” value [3] was 4.

B2: GFP-MBP-tagged human TRPC5 residues 1-764 (hTRPC5_(1-764)) as screened by FSEC (domain or fragment, UniProt Q9UL62 1-764, looked up)
chain: MAQLYYKKVNYSPYRDRIPLQIVRAETELSAEEKAFLNAVEKGDYATVKQALQEAEIYYNVNINCMDPLGRSALLIAIENENLEIMELLLNHSVYVGDALLYAIRKEVVGAVELLLSYRRPSGEKQVPTLMMDTQFSEFTPDITPIMLAAHTNNYEIIKLLVQKRVTIPRPHQIRCNCVECVSSSEVDSLRHSRSRLNIYKALASPSLIALSSEDPILTAFRLGWELKELSKVENEFKAEYEELSQQCKLFAKDLLDQARSSRELEIILNHRDDHSEELDPQKYHDLAKLKVAIKYHQKEFVAQPNCQQLLATLWYDGFPGWRRKHWVVKLLTCMTIGFLFPMLSIAYLISPRSNLGLFIKKPFIKFICHTASYLTFLFMLLLASQHIVRTDLHVQGPPPTVVEWMILPWVLGFIWGEIKEMWDGGFTEYIHDWWNLMDFAMNSLYLATISLKIVAYVKYNGSRPREEWEMWHPTLIAEALFAISNILSSLRLISLFTANSHLGPLQISLGRMLLDILKFLFIYCLVLLAFANGLNQLYFYYETRAIDEPNNCKGIRCEKQNNAFSTLFETLQSLFWSVFGLLNLYVTNVKARHEFTEFVGATMFGTYNVISLVVLLNMLIAMMNNSYQLIADHADIEWKFARTKLWMSYFDEGGTLPPPFNIIPSPKSFLYLGNWFNNTFCPKRDPDGRRRRRNLRSFTERNADSLIQNQHYQEVIRNLVKRYVAAMIRNSKTHEGLTEENFKELKQDISSFRYEVLDLLGNR
notes: human TRPC5 (transient receptor potential canonical 5), C-terminally truncated construct, residues 1-764; Same construct as m1, but uncleaved and unpurified; It is detected by the fluorescence of its GFP tag in FSEC; source: HEK293F, transfected (PEI), solubilised in LMNG/CHS, in supernatant; not shown: GFP, N-terminal, kept; MBP, N-terminal, kept
For B2, the “stoichiometry N” value [4] was 4.
